Measured values reported in PubChem BioAssay (NCI).
Where “and” joins values, the source holds several entries; their conditions need not be identical. Equal values may be shown once.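 96-well plates; 48 h exposure; 5 concentrations. Endpoints by linear interpolation between flanking doses. Not reached: highest tested concentration assigned. Here, GI50 denotes the concentration required for 50% inhibition of growth. TGI: concentration producing complete growth inhibition.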 Where a SMILES comes first, the peptide text is derived from it. [ ]: non-standard residue; d: D form. The star is where a group is joined. NMeF = CN[C@@H](Cc1ccccc1)C(=O)O; NMeV = CN[C@H](C(=O)O)C(C)C; Boc = CC(C)(C)OC(=O)*; OBn = c1ccc(CO*)cc1

Legend:
Test in all cases: NCI anticancer screen, dose series, 48 h
[1] = system: NCI-H226 lung
[2] = system: DU-145 prostate
[3] = system: NCI/ADR-RES ovarian
[4] = system: BT-549 breast
[5] = system: LOX IMVI melanoma
[6] = system: OVCAR-8 ovarian
[7] = system: A498 renal
[8] = system: MCF7 breast
[9] = system: OVCAR-3 ovarian
[10] = system: ACHN renal

SMILES | GI50 [1] [µM] | TGI [1] | GI50 [2] [µM] | TGI [2] [µM] | GI50 [3] [µM] | TGI [3] [µM] | GI50 [4] [µM] | TGI [4] [µM] | GI50 [5] [µM] | TGI [5] | GI50 [6] [µM] | TGI [6] [µM] | GI50 [7] [µM] | TGI [7] | GI50 [8] [µM] | TGI [8] [µM] | GI50 [9] [µM] | TGI [9] | GI50 [10] [µM] | TGI [10]
Cc1cc2cc3cc(C)c(N)cc3[n+](C)c2cc1N | 1.17 | 4.7 µM | 1.77 | 9.64 | 5.56 | 23.4 | 2.34 | 9.31 | 1.35 | 3.34 µM | 2.26 | 5.88 | 2.54 | 8.76 µM | 0.476 | 6.08 | 1.55 | 5.66 µM | 1.95 | 8.27 µM
O=C(O)c1ccccc1-c1ccccc1C(=O)Nc1ccc2c(c1)[nH]c(=O)c1ccccc12 |  | > 100 µM |  | > 100 |  | > 100 |  | > 100 |  | > 100 µM |  | > 100 |  | > 100 µM |  | > 100 |  | > 100 µM |  | > 100 µM
O=C(NCCNc1nccc(-c2c(-c3ccc(F)cc3)nc3sccn23)n1)c1ccccc1 | 5.87 | 25 µM | 12.7 | > 100 | 7.13 | 76.4 | 14.3 | 34 | 4.3 | 31.4 µM | 5.95 | > 100 | 15.1 | > 100 µM | 1.43 | 17.3 | 16.2 | > 100 µM | 2.98 | 49.2 µM
Clc1ccc(C2=NN[C@H](c3cn(-c4ccccc4)nc3-c3ccccc3)C2)cc1 | 5.96 | 25.4 µM | 6.47 | 28.2 | 3.17 | 12.7 | 10.3 | 28.4 | 3.99 | 15.1 µM | 2.74 | 8.29 | 2.93 | 8.77 µM | 4.8 | 17.9 | 2.54 | 5.52 µM |  | 
COc1cccc(Cn2c(-c3nonc3NC(C)=O)nc3ccccc32)c1 | 5.46 | > 100 µM | 3.42 | 83.9 | 3.24 | > 100 | 8.79 | > 100 | 6.1 | > 100 µM | 6.3 | > 100 | 0.426 | 6.53 µM | 4.04 | > 100 | 6.56 | > 100 µM | 8.41 | > 100 µM
CC(C)[C@@H](C(=O)N1CCC[C@H]1C(=O)OCc1ccccc1)N(C)C(=O)[C@H](C(C)C)N(C)C(=O)[C@H](Cc1ccccc1)N(C)C(=O)[C@H](NC(=O)OC(C)(C)C)C(C)C (Boc-[dV][NMeF][NMeV][NMeV]P-OBn) |  | > 100 µM |  | > 50 |  | > 50 |  | > 50 | 12.9 | > 50 µM and 26.6 µM |  | > 100 |  | > 100 µM |  | > 50 | > 100 | > 100 µM |  | > 100 µM
Cc1cc(C)c2nc3nc(C)cc(C)c3c(N)c2c1 | 5.4 | 24.7 µM | 4.72 | 17.9 | 6.88 | 36.9 | 11 | 31.7 | 3.51 | 14.9 µM | 4.02 | > 100 | 4.67 | 17.8 µM | 3.54 | 16.7 | 9.04 | 39.9 µM | 3.29 | 49.4 µM
Cn1ccnc1C(=O)/C=C/c1ccc(CC(=O)Nc2ccc(F)cc2)cc1 | 8.57 | > 25 µM | 1.24 | 5.97 | 4.24 | > 25 | 1.32 | 6.01 | 0.712 | 3.9 µM | 5.71 | > 25 | 5.65 | 15.3 µM | 1.04 | 8.59 | 0.962 | 3.67 µM | 5.74 | > 25 µM
Cc1sc(NC2=NC(=O)/C(=C\c3ccccc3)S2)nc1-c1nc(NC2=NC(=O)/C(=C\c3ccccc3)S2)sc1C | 12.4 | > 32.8 µM | 0.382 | > 20.6 | 14.4 | 43.8 | 18.4 | > 50 | 11.2 | 35.3 µM | 16.5 | > 39.6 | 12.1 | 30.7 µM | 16.2 | > 50 | 9.84 | 29.1 µM | 12.4 | > 32.6 µM
O=C(CN1C(=O)S/C(=C\C(Cl)=C\c2ccccc2)C1=O)NCCc1ccc(O)cc1 | 1.99 | 4.4 µM | 1.72 | 3.55 | 2.44 | 8.81 | 2.03 | 4.9 | 1.42 | 2.85 µM | 2.97 | > 100 | 1.65 | 7.75 µM | 1.79 | 11.5 | 1.69 | 3.27 µM | 2.55 | 8.06 µM
OCC1OC2OC3C(CO)OC(OC4C(CO)OC(OC5C(CO)OC(OC6C(CO)OC(OC7C(CO)OC(OC1C(O)C2O)C(O)C7O)C(O)C6O)C(O)C5O)C(O)C4O)C(O)C3O (configuration not stated) (tested in a mixture with another compound) |  | > 100 µM |  | > 100 |  | > 96.1 |  | > 100 |  | > 100 µM |  | > 100 |  | > 100 µM |  | > 100 |  | > 100 µM |  | > 100 µM
O=C1NC(c2c(Cl)cccc2Cl)Nc2ccccc21 (configuration not stated) |  | > 100 µM |  | > 100 |  | > 100 |  | > 100 |  | > 100 µM |  | > 100 |  | > 100 µM |  | > 100 |  | > 100 µM |  | > 100 µM
CCN(CC)CCCCNc1ncc2cc(-c3cc(OC)cc(OC)c3)c(NC(=O)NC(C)(C)C)nc2n1 | 2.57 | 24.8 µM | 8.08 | 22.9 | 8.01 | 27.3 | 2.15 | 18 | 5.34 | 18.8 µM | 5.53 | 26.6 | 0.0209 | 0.097 µM | 5.35 | 23.1 | 11.9 | 25 µM | 3.92 | 16.4 µM
CCn1c(-c2nonc2N)nc2cncc(C(=O)NCCNC)c21 | 0.454 | > 25 µM | 22.8 | > 25 | 18.9 | > 25 | 3.13 | > 22.3 | > 25 | > 25 µM | 15.3 | > 25 | 0.834 | > 19.8 µM | 1.92 | > 25 | > 23.9 | > 25 µM | 11.2 | > 25 µM
COc1ccc(-c2nn(-c3cccc(NC(=O)c4cccc(C(F)(F)F)c4)c3)cc2-c2ccncc2)cc1Cl | 4.92 | > 100 µM | 4.36 | > 100 | 1.75 | 14 | 3.14 | > 100 | 3.08 | 27.2 µM | 3.34 | > 100 | 1.03 | 4.68 µM | 1.81 | 24.8 |  |  | 4.4 | > 100 µM
OCC1OC(n2cnc3c2NC=NC[C@H]3O)CC1O (some centres not stated) | > 588 | 500 µM and > 588 µM |  | 500 |  | 500 |  | > 500 |  | 500 µM |  | 500 | > 588 | 481 µM and > 588 µM |  | 500 | > 588 | 500 µM and > 588 µM | > 588 | 497 µM and > 588 µM
COc1ccc2c(c1)/C(=C\c1c(Cl)n(C)c3ccccc13)C(=O)N2 | 2.19 | 19.5 µM | 3.07 | 15 | 0.629 | 2.03 | 1.29 | 16.4 | 0.83 | > 100 µM | 1.89 | 11.9 | 0.611 | 4.31 µM | 0.682 | > 38.7 | 0.633 | 1.91 µM | 1.6 | 16.2 µM
CC1OC(n2c3ccccc3c3c4c(c5c6ccccc6[nH]c5c32)C(=O)N(CCN2CCOCC2)C4=O)CC(O)C1O (configuration not stated) | 2.2 | 9.87 µM | 2 | 7.85 | 2.87 | 13.1 | 2.83 | 12.1 | 0.962 | 6.12 µM | 2.74 | 16.5 | 5.13 | 13.4 µM | 1.05 | 18 | 4.36 | 12.2 µM | 1.51 | 6.74 µM
CCN(CC)CCCC(Cc1ccccc1)Nc1c2ccc(Cl)cc2nc2ccc(OC)cc12 (configuration not stated) | 3.63 | 14.5 µM | 5 | 18.3 | 3.02 | 10.4 | 2.2 | 5.17 | 1.6 | 3.04 µM | 2.34 | 5.26 | 1.88 | 5.09 µM | 1.54 | 3.35 | 2.88 | 12.2 µM | 2.01 | 4.5 µM
CC(C(=O)O)/C(=C\c1ccc2c(c1)OCO2)C(=O)O (configuration not stated) |  | > 100 µM |  | > 100 |  | > 100 |  | > 100 |  | > 100 µM |  | > 100 |  | > 100 µM |  | > 100 |  | > 100 µM |  | > 100 µM
